Assay results taken from US7829665B2 (priority 2005, dated 2010).
Where two headings read alike, the source gives them in different places.

How the values were obtained:
[1] = molecular target: T1, full-length NS3/NS4A-2 (HCV NS3 protease) (Hepatitis C virus genotype 1a, UniProt P27958); test: NS3-NS4 protease assay / NS3 inhibition assay (RETS1 substrate, fluorescence kinetic read); type: biochemical
T1 construct: Recombinant E. coli or Baculovirus full-length NS3 was diluted to 3.33 μM with assay buffer; made in house; host or cells: E. coli or baculovirus (BV) expression system
T1 sequence (P27958 1027-1657): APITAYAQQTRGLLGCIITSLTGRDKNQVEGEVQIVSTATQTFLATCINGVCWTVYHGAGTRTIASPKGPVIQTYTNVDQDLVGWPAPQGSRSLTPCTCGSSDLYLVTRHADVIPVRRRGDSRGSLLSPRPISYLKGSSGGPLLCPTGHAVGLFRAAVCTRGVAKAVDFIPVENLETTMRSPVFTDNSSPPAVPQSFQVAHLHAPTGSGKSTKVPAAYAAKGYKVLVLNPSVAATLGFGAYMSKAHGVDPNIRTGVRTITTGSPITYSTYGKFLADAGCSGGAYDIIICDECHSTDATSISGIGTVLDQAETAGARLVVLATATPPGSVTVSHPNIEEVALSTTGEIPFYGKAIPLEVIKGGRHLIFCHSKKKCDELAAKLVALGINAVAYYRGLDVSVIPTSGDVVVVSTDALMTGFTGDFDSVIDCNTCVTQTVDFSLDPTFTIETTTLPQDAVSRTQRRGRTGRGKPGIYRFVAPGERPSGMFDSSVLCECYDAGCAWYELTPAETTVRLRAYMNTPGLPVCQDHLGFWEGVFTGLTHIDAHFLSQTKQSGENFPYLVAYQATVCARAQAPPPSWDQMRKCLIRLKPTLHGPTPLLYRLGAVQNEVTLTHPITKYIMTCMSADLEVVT
Outline: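 Full-length NS3 from E. coli (2 nM in assay) or baculovirus (3 nM) was precomplexed with excess NS4A-2 peptide, then preincubated 10 min at room temperature with serially diluted compounds starting at 50 microM. Reaction was started with RETS1 substrate at 8 μM before addition and read kinetically for 30 min (ex 335/em 495 nm). Four-parameter IC50s were converted to Ki by Cheng-Prusoff using Km 2.03 μM (E. coli) or 1.74 μM (BV).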

[2] = system: HCV sub-genomic replicon in GS4.3 cells (HuH-7 hepatoma cells); test: Quantitation by ELISA of Neomycin phosphotransferase II (NPTII) in the HCV sub-genomic replicon, GS4.3; type: cell-based, hepatitis C virus; conditions: Hepatitis C virus, Huh-7; GS4.3 cells, 72 h incubation, NPTII ELISA; read-out: Replicon EC50
Outline: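 HuH-7 GS4.3 cells carrying HCV sub-genomic replicon 1377/NS3-3′, treated 72 h at 37 °C without G418 with 3-fold dilutions from 10 μM to 56 pM (1% DMSO). NPTII in cell lysates measured by direct ELISA with TMB readout at 450 nm. EC50 from 4-parameter fit of percent DMSO-control signal.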

[3] = recombinant E. coli or Baculovirus full-length NS3 with NS4A-2, read-out: NS3-NS4 IC50

SMILES: CC(C)C(O)C(=O)N[C@H]1CCCCC/C=C\[C@@H]2C[C@@]2(C(=O)NS(=O)(=O)C2CC2)NC(=O)[C@@H]2C[C@@H](OC(=O)N3Cc4cccc(F)c4C3)CN2C1=O (some centres unmarked) [Compound 250]
- IC50 [1, 3]: < 100 nM
- EC50 [2]: < 1000 nM

SMILES: N[C@H]1CCCCC/C=C\[C@@H]2C[C@@]2(C(=O)NS(=O)(=O)C2(Cc3ccccc3)CC2)NC(=O)[C@@H]2C[C@@H](OC(=O)N3Cc4cccc(Cl)c4C3)CN2C1=O [Compound 163]
- IC50 [1]: < 100 nM
- EC50 [2]: < 10000 nM

SMILES: CC(C)(C)OC(=O)N[C@H]1CCC(F)(F)CC/C=C\[C@@H]2C[C@@]2(C(=O)O)NC(=O)[C@@H]2C[C@@H](OC(=O)N3Cc4ccccc4C3)CN2C1=O [Compound 1007]
- IC50 [1, 3]: < 100 nM
- EC50 [2]: < 10000 nM

SMILES: CC(C)(C)OC(=O)N[C@H]1CCCC/C=C\[C@@H]2C[C@@]2(C(=O)NS(=O)(=O)C2CC2)NC(=O)[C@@H]2C[C@@H](OC(=O)N3Cc4cccc(F)c4C3)CN2C1=O [Compound 267]
- IC50 [1, 3]: < 100 nM
- EC50 [2]: < 100 nM

SMILES: O=C(N[C@H]1CCCCC/C=C\[C@@H]2C[C@@]2(C(=O)NS(=O)(=O)NCC(F)(F)F)NC(=O)[C@@H]2C[C@@H](OC(=O)N3Cc4cccc(F)c4C3)CN2C1=O)OC1CCCC1 [Compound 223]
- IC50 [1, 3]: < 100 nM
- EC50 [2]: < 1000 nM

SMILES: O=C1N[C@]2(C(=O)NS(=O)(=O)C3CC3)C[C@H]2/C=C\CCCCC[C@H](Nc2c(N3CCCC3)c(=O)c2=O)C(=O)N2C[C@H](OC(=O)N3Cc4cccc(F)c4C3)C[C@@H]12 [Compound 197]
- IC50 [1, 3]: < 100 nM
- EC50 [2]: < 10000 nM

SMILES: O=C1N[C@]2(C(=O)NS(=O)(=O)C3CC3)C[C@H]2/C=C\CCCCC[C@H](Nc2c(N3CCC3)c(=O)c2=O)C(=O)N2C[C@H](OC(=O)N3Cc4cccc(F)c4C3)C[C@@H]12 [Compound 193]
- IC50 [1, 3]: < 100 nM
- EC50 [2]: < 1000 nM

SMILES: O=C1N[C@]2(C(=O)NS(=O)(=O)C3CC3)C[C@H]2/C=C\CCCCC[C@H](NCCC(F)(F)F)C(=O)N2C[C@H](OC(=O)N3Cc4cccc(F)c4C3)C[C@@H]12 [Compound 900]
- IC50 [1, 3]: < 100 nM
- EC50 [2]: < 100 nM

SMILES: CC[C@@H]1C[C@H]2C(=O)N[C@]3(C(=O)NS(=O)(=O)C4CC4)C[C@H]3/C=C\CCCCC[C@H](NC(=O)C3CC3)C(=O)N2C1 [Compound 318]
- IC50 [1, 3]: < 1000 nM
- EC50 [2]: > 10000 nM

SMILES: O=C1N[C@]2(C(=O)NS(=O)(=O)C3CC3)C[C@H]2/C=C\CCCCC[C@H](NC(=S)NC2CCCC2)C(=O)N2C[C@H](OC(=O)N3Cc4cccc(F)c4C3)C[C@@H]12 [Compound 240]
- IC50 [1, 3]: < 100 nM
- EC50 [2]: < 1000 nM

SMILES: O=C1N[C@]2(C(=O)NS(=O)(=O)C3CC3)C[C@H]2/C=C\CCCCC[C@H](NCC2CCCO2)C(=O)N2C[C@H](OC(=O)N3Cc4cccc(F)c4C3)C[C@@H]12 (some centres unmarked) [Compound 916]
- IC50 [1, 3]: < 100 nM
- EC50 [2]: < 1000 nM

SMILES: O=C(N[C@H]1CCCCC/C=C\[C@@H]2C[C@@]2(C(=O)NS(=O)(=O)N2CCCC2)NC(=O)[C@@H]2C[C@@H](OC(=O)N3Cc4cccc(F)c4C3)CN2C1=O)OC1CCCC1 [Compound 216]
- IC50 [1, 3]: < 100 nM
- EC50 [2]: < 100 nM

SMILES: CC(C)N(C)S(=O)(=O)NC(=O)[C@@]12C[C@H]1/C=C\CCCCC[C@H](NC(=O)OC(C)(C)C)C(=O)N1C[C@H](OC(=O)N3Cc4ccccc4C3)C[C@H]1C(=O)N2 [Compound 201]
- IC50 [1, 3]: < 100 nM
- EC50 [2]: < 100 nM

SMILES: CC(C)(C)OC(=O)N[C@H]1COCCCCC[C@@H]2C[C@@]2(C(=O)NS(=O)(=O)C2CC2)NC(=O)[C@@H]2C[C@@H](OC(=O)N3Cc4cccc(F)c4C3)CN2C1=O [Compound 1022, (2R,6S,13aR,14aR,16aS)-6-(tert-butoxycarbonylamino)-14a-(cyclopropylsulfonylcarbamoyl)-5,16-dioxohexadecahydro-1H-cyclopropa(i)pyrrolo[1,2-e][1,5,8]oxadiazacyclopentadecin-2-yl 4-fluoroisoindoline-2-carboxylate]
- IC50 [1, 3]: < 100 nM
- EC50 [2]: < 100 nM

SMILES: CC(C)(C)OC(=O)N[C@H]1CCCCC/C=C\[C@@H]2C[C@@]2(C(=O)NS(=O)(=O)C2CC2)NC(=O)[C@@H]2C[C@@H](OC(=O)N3CCc4c(F)ccc(Cl)c4C3)CN2C1=O [Compound 259]
- IC50 [1, 3]: < 100 nM
- EC50 [2]: < 100 nM

SMILES: CC(C)(C)OCC(=O)N[C@H]1CCCCC/C=C\[C@@H]2C[C@@]2(C(=O)NS(=O)(=O)C2CC2)NC(=O)[C@@H]2C[C@@H](OC(=O)N3Cc4cccc(Cl)c4C3)CN2C1=O [Compound 266]
- IC50 [1, 3]: < 100 nM
- EC50 [2]: < 100 nM

SMILES: O=C(N[C@H]1CCCCC/C=C\[C@@H]2C[C@@]2(C(=O)NS(=O)(=O)N2CCC2)NC(=O)[C@@H]2C[C@@H](OC(=O)N3Cc4cccc(F)c4C3)CN2C1=O)OC1CCCC1 [Compound 217]
- IC50 [1, 3]: < 100 nM
- EC50 [2]: < 100 nM

SMILES: O=C(N[C@H]1CCCCC/C=C\[C@@H]2C[C@@]2(C(=O)O)NC(=O)[C@@H]2C[C@@H](OC(=O)N3Cc4ccccc4C3)CN2C1=O)C1CC1 [Compound 123]
- IC50 [1, 3]: < 100 nM
- EC50 [2]: < 10000 nM

SMILES: O=C(N[C@H]1CCCCC/C=C\[C@@H]2C[C@@]2(C(=O)NS(=O)(=O)c2ccccc2)NC(=O)[C@@H]2C[C@@H](OC(=O)N3CCc4ccccc4C3)CN2C1=O)OC1CCCC1 [Compound 117]
- IC50 [1, 3]: < 100 nM
- EC50 [2]: < 100 nM
